Assay [1] addresses IDH1 wt/IDH1 R132H heterodimer (Homo sapiens (Human), UniProt O75874, R132H). Description: In vitro assay for IDH1m R132H inhibitors, IDH1 wt/IDH1 R132H heterodimer, NADPH depletion (diaphorase/resazurin). Type of assay: biochemical. Summed up:
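Purified IDH1wt-his/IDH1R132H-flag heterodimer (sf9 co-expression) pre-incubated 1 hr at room temperature with compound and NADPH before α-KG addition. Remaining NADPH read by diaphorase/resazurin conversion to fluorescent resorufin, 5 min at 25° C. Compounds diluted 1:50 from DMSO; IC50 determined.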
(In general: The colour change of resazurin is a common sign of viable cells or microbes.)

The target in a further assay is IDH2 R140Q (Homo sapiens (Human), UniProt P48735, R140Q). Description: In vitro assay for IDH2m R140Q inhibitors, cofactor depletion assay. The note with it: IDH2 R140Q enzyme. Type of assay: biochemical. Summed up:
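Remaining cofactor measured fluorimetrically: diaphorase/resazurin Stop Mix […], halting the reaction. Before that, mutant enzyme and compound sat 1 h at RT, then substrate mix (4 μM NADPH, 1.6 mM α-KG) was added for 16 h at RT.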

For assay [2], the system named is Neurosphere cells (TS603). The assay is described as follows: Cellular assay for IDH1m R132H inhibitors, 2-HG by LC-MS in neurosphere cells (TS603). Type of assay: cell-based. The note with it: 2-HG in media at 48 hours. Summed up: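 TS603 neurosphere cells in NeuroCult medium were dosed with compound (0.25% DMSO final) at 37 C, 5% CO2. After 48 hours, medium 2-HG was measured by LC-MS. At 72 hours, viability was read by CellTiter-Glo luminescence.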

[3] abbreviates: IDH1 wt/R132H heterodimer, NADPH/NADP, not saturated, read-out: IDH1 wt/R132H NADPH/NADP IC50 not saturated.

Where two headings read alike, the source gives them in different places.

IDH2 R140Q, sequence (P48735 40-452 R140Q): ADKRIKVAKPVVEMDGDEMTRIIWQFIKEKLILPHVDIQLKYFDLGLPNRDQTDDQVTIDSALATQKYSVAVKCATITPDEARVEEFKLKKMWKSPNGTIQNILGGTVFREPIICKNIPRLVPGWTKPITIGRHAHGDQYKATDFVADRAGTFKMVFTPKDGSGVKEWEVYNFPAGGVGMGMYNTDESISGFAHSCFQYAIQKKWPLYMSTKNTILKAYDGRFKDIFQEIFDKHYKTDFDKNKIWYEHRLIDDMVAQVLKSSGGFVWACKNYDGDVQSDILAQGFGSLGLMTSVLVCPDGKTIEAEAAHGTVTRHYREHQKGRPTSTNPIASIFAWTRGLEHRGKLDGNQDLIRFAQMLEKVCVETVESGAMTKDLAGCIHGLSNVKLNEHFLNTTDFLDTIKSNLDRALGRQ
IDH1 wt/IDH1 R132H heterodimer, sequence (O75874 whole entry R132H): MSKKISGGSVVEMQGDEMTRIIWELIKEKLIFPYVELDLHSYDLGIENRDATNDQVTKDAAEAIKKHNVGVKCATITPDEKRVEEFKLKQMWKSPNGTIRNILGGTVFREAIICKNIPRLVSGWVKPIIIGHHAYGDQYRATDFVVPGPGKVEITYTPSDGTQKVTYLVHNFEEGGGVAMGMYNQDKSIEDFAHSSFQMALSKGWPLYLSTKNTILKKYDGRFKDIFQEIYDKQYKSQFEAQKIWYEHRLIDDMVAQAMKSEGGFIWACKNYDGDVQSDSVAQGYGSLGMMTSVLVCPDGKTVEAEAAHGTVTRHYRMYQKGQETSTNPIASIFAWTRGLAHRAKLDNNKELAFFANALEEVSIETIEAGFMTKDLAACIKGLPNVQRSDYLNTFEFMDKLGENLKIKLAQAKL
IDH1 wt/IDH1 R132H heterodimer, sequence (O75874 whole entry, stated change not applied): as the sequence (O75874 whole entry R132H) above, with H132R counted along it

As to `FC1(F)CCC(Nc2nc(NC3CCC(F)(F)C3)nc(-n3ccc(C(F)(F)F)n3)n2)C1` (stereo not shown) [Compound 146], the IC50 (in assay [1] (setting [3]); against IDH2 R140Q; in assay [2]) was less than 0.05 µM in each case.
Regarding `CC(C)(C)Nc1nc(Nc2cc(F)cc(C#N)c2)nc(-c2nccc(C(F)(F)F)n2)n1` [Compound 245], the IC50 in assay [1] (setting [3]) was 0.05 to 0.1 µM; against IDH2 R140Q, less than 0.05 µM; in assay [2] it was less than 0.05 µM.
As for `C[C@@H](Nc1nc(Nc2ccnc(C3(C#N)CC3)c2)nc(-c2cccc(Cl)n2)n1)C1CC1` [Compound 167], the IC50 (in assay [1] (setting [3]); against IDH2 R140Q; in assay [2]) was less than 0.05 µM in each case.
As to `O=C(c1ccccc1)N1CCC(Nc2nc(NC3CCC(F)(F)C3)nc(-c3cccc(C(F)(F)F)n3)n2)C1` (stereo not shown) [Compound 263], the IC50 in assay [1] (setting [3]) was 0.1 to 1 µM.
For `Clc1cccc(-c2nc(NC(C3CC3)C3CC3)nc(NC(C3CC3)C3CC3)n2)n1` [Compound 131], the IC50 (in assay [1] (setting [3]); at IDH2 R140Q; in assay [2]) was less than 0.05 µM in each case.
In the case of `CC(F)(F)c1cccc(-c2nc(NC3CC(F)(F)C3)nc(NC3CC(F)(F)C3)n2)n1` [Compound 187], the IC50 (in assay [1] (setting [3]); against IDH2 R140Q; in assay [2]) was less than 0.05 µM throughout.
On to `CC(Nc1nc(Nc2ccnc(C3(C#N)CC3)c2)nc(-c2cccc(Cl)n2)n1)C(F)(F)F` (stereo not shown) [Compound 134], for which the IC50 (in assay [1] (setting [3]); against IDH2 R140Q; in assay [2]) was less than 0.05 µM throughout.
For the compound `FC1(F)CC(Nc2nc(NC3CC(F)(F)C3)nc(-c3csc(C(F)(F)F)n3)n2)C1` [Compound 170], the IC50 (in assay [1] (setting [3]); on IDH2 R140Q; in assay [2]) was less than 0.05 µM throughout.
For `Fc1cc(F)cc(Nc2nc(NC3CC(F)(F)C3)nc(-n3ccc(C(F)(F)F)n3)n2)c1` [Compound 106], the IC50 (in assay [1] (setting [3]); against IDH2 R140Q; in assay [2]) was less than 0.05 µM each time.
Turning to `N#CC1(c2cc(Nc3nc(NC4CCC(F)(F)CC4)nc(-c4cccc(C(F)(F)F)n4)n3)ccn2)CC1` [Compound 189], the IC50 (in assay [1] (setting [3]); on IDH2 R140Q; in assay [2]) was less than 0.05 µM throughout.
As to `FC1(F)CCC(Nc2nc(NC3CCN(Cc4ccccc4)C3)nc(-c3cccc(C(F)(F)F)n3)n2)C1` (stereo not shown) [Compound 280], the IC50 in assay [1] (setting [3]) is 0.1 to 1 µM.
For `FC1(F)CCC(Nc2nc(NC3CCN(c4ccccn4)C3)nc(-c3cccc(C(F)(F)F)n3)n2)C1` (stereo not shown) [Compound 222], the figures for the IC50 (in assay [1] (setting [3]); against IDH2 R140Q; in assay [2]) were less than 0.05 µM, 0.1 to 1 µM and less than 0.05 µM, respectively.
With `CC(=O)N1CCC(Nc2nc(NC3CCC(F)(F)CC3)nc(-c3cccc(C(F)(F)F)n3)n2)CC1` [Compound 273], the IC50 in assay [1] (setting [3]) was 0.1 to 1 µM.
Consider `N#CC1(c2cc(Nc3nc(NC4CC(F)(F)C4)nc(-c4cccc(C(F)(F)F)n4)n3)ccn2)CC1` [Compound 168], for which the IC50 (in assay [1] (setting [3]); against IDH2 R140Q; in assay [2]) was less than 0.05 µM in each case.
`FC1(F)CCC(Nc2nc(NC3CCC(F)(F)C3)nc(-c3nccc(C(F)(F)F)n3)n2)C1` (stereo not shown) [Compound 237]: the IC50 (in assay [1] (setting [3]); against IDH2 R140Q; in assay [2]) was less than 0.05 µM each time.
Turning to `CC(C)(CC#N)Nc1nc(Nc2ccnc(C(C)(F)F)c2)nc(-c2cccc(C(F)(F)F)n2)n1` [Compound 231], the IC50 (in assay [1] (setting [3]); against IDH2 R140Q; in assay [2]) was less than 0.05 µM each time.
Turning to `FC1(F)CCC(Nc2nc(NC3CCC(F)(F)CC3)nc(-c3csc(C(F)(F)F)n3)n2)CC1` [Compound 223], the IC50 (in assay [1] (setting [3]); at IDH2 R140Q; in assay [2]) was less than 0.05 µM in each case.
On to `FC1(F)CCC(Nc2nc(NC3CCC(F)(F)C3)nc(-c3cccc(OC(F)(F)F)n3)n2)C1` (stereo not shown) [Compound 252], for which the IC50 in assay [1] (setting [3]) is 0.05 to 0.1 µM; at IDH2 R140Q it was less than 0.05 µM; in assay [2], 0.05 to 0.1 µM.
As to `N#CC1(c2cc(Nc3nc(NC4CC(F)(F)C4)nc(-c4cncc(C(F)(F)F)n4)n3)ccn2)CC1` [Compound 401], the IC50 in assay [1] (IDH1 wt/IDH1 R132H heterodimer, 300 μM NADP (saturated), read-out: IDH1 wt/R132H NADPH/NADP IC50 saturated) is less than 0.05 µM; against IDH2 R140Q, less than 0.05 µM; in assay [2], less than 0.05 µM.
`Fc1ccc([C@H]2C[C@@H](Nc3nc(NC4CCC(F)(F)C4)nc(-c4cccc(C(F)(F)F)n4)n3)C2)cc1` (stereo partly shown) [Compound 199]: the IC50 (in assay [1] (setting [3]); against IDH2 R140Q; in assay [2]) was less than 0.05 µM throughout.
Consider `FC1(F)CCC(Nc2nc(NC3CC4(C3)CC(F)(F)C4)nc(-c3cccc(C(F)(F)F)n3)n2)C1` (stereo not shown) [Compound 191], for which the IC50 (in assay [1] (setting [3]); against IDH2 R140Q; in assay [2]) was less than 0.05 µM each time.
On to `CC(Nc1nc(N[C@H](C)C2CC2)nc(-c2cccc(C(F)(F)F)n2)n1)C(F)(F)F` (stereo partly shown) [Compound 203], for which the IC50 (in assay [1] (setting [3]); on IDH2 R140Q; in assay [2]) was less than 0.05 µM in each case.
As to `FC1(F)CC(Nc2nc(NC3CC(F)(F)C3)nc(-n3ccc(C(F)(F)F)n3)n2)C1` [Compound 126], the IC50 (in assay [1] (setting [3]); at IDH2 R140Q; in assay [2]) was less than 0.05 µM throughout.
Consider `CS(=O)(=O)N1CCC(Nc2nc(NC3CCC(F)(F)CC3)nc(-c3cccc(C(F)(F)F)n3)n2)CC1` [Compound 266], for which the values for the IC50 in assay [1] (setting [3]) and in assay [2] were 0.1 to 1 µM and less than 0.05 µM, respectively.
In the case of `FC1(F)CCC(Nc2nc(NC3CCC(F)(F)CC3)nc(-c3cncc(C(F)(F)F)n3)n2)CC1` [Compound 160], the IC50 (in assay [1] (setting [3]); against IDH2 R140Q; in assay [2]) was less than 0.05 µM in each case.
For the compound `N#Cc1cc(Nc2nc(NC3CC(F)(F)C3)nc(-c3cccc(C(F)(F)F)n3)n2)ccn1` [Compound 213], the IC50 (in assay [1] (setting [3]); on IDH2 R140Q; in assay [2]) was less than 0.05 µM throughout.
Consider `FC1(F)CCC(Nc2nc(NC3CCOCC3)nc(-c3cccc(C(F)(F)F)n3)n2)CC1` [Compound 255], for which, in assay [1] (setting [3]), the IC50 lay within 0.1 to 1 µM.
Take `Fc1cc(F)cc(Nc2nc(NC3CCC(F)(F)C3)nc(-c3cccc(C(F)(F)F)n3)n2)c1` (stereo not shown) [Compound 123]: the IC50 (in assay [1] (setting [3]); on IDH2 R140Q; in assay [2]) was less than 0.05 µM throughout.
`CC(C)(O)CNc1nc(Nc2cc(F)cc(C#N)c2)nc(-c2cccc(C(F)(F)F)n2)n1` [Compound 244]: the IC50 is 0.05 to 0.1 µM in assay [1] (setting [3]), less than 0.05 µM against IDH2 R140Q and less than 0.05 µM in assay [2].
In the case of `FC1(F)CC(Nc2nc(NC3CC(F)(F)C3)nc(-c3cccc(C(F)(F)F)n3)n2)C1` [Compound 149], the IC50 (in assay [1] (setting [3]); at IDH2 R140Q; in assay [2]) was less than 0.05 µM in each case.
Consider `N#Cc1cc(F)cc(Nc2nc(NC3CCC(F)(F)C3)nc(-c3cccc(C(F)(F)F)n3)n2)c1` (stereo not shown) [Compound 124], for which the IC50 (in assay [1] (setting [3]); against IDH2 R140Q; in assay [2]) was less than 0.05 µM in each case.
`FC1(F)CCC(Nc2nc(NC3CCN(c4ncccn4)C3)nc(-c3cccc(C(F)(F)F)n3)n2)C1` (stereo not shown) [Compound 227]: the IC50 in assay [1] (setting [3]) was less than 0.05 µM; against IDH2 R140Q, 0.1 to 1 µM; in assay [2] it was less than 0.05 µM.
As to `CC(C)(C)Nc1nc(Nc2cccc(C#N)c2)nc(-c2cccc(C(F)(F)F)n2)n1` [Compound 117], the IC50 (in assay [1] (setting [3]); on IDH2 R140Q) was less than 0.05 µM throughout.
Take `Fc1ccc([C@H]2C[C@@H](Nc3nc(N[C@H]4C[C@@H](c5ccc(F)cc5)C4)nc(-c4cccc(C(F)(F)F)n4)n3)C2)cc1` [Compound 272]: the IC50 (in assay [1] (setting [3]); on IDH2 R140Q) was 0.1 to 1 µM throughout.

Source of the values: patent US10028961B2, “Therapeutically active compounds and their methods of use” (AGIOS PHARMACEUTICALS, INC., priority 2013, dated 2018).
